{
  "source": "paper PMC7277544",
  "about": "“A Fluorescence-Based Method to Measure ADP/ATP Exchange of Recombinant Adenine Nucleotide Translocase in Liposomes” (Biomolecules, 2020)",
  "target": "T1, adenine nucleotide translocase 1 (ANT1) (Mus musculus, UniProt P48962)",
  "T1 construct": "gene Slc25a4; recombinant murine ANT1 from E. coli inclusion bodies, reconstituted into liposomes",
  "T1 sequence (P48962 2-298)": "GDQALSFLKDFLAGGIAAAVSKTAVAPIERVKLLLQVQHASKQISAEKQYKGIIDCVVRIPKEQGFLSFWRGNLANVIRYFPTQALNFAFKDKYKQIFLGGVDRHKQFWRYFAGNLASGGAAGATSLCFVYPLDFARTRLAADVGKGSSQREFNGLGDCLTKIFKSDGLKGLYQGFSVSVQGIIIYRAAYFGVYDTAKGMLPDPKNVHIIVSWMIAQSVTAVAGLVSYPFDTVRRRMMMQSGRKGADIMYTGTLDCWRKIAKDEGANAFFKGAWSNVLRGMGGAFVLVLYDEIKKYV",
  "assay": "3H-ATP uptake into ANT1 proteoliposomes (transport rate)",
  "type": "biochemical",
  "data": [
    {"smiles": "Nc1ncnc2c1ncn2[C@@H]1O[C@H](COP(=O)(O)OP(=O)(O)OP(=O)(O)O)[C@@H](O)[C@H]1O", "note": "[ATP, adenosine triphosphate]", "values": [
      {"measurement": "3H-ATP uptake into ANT1 proteoliposomes (transport rate)", "result": "2.90 ± 0.47", "unit": "mmol/min/g"}
    ]}
  ]
}
